Test results reported in patent US6500425B1, “Inhibiting plant pathogens with an antagonistic microorganism(s)” (The United States of America as represented by the …, priority 1988, dated 2002).

Experiments:
Type in all cases: in vivo
[1] = tested on: Botrytis cinerea; assay: Botrytis cinerea infection of wounded apples, inorganic salts with or without NRRL Y-18314 (Example XI); details: for Percent Infection, Salt Alone (No NRRL Y-18314): salt 2 grams/100 ml (FeSO4 5 millimolar), 10 days after inoculation, mean (standard error)
Method: Golden delicious apples were artificially wounded to a depth of 3 mm using a needle. Each of a first portion of the apples was treated with 50 microliter aliquots of an aqueous solution consisting of NRRL Y-18314 in sterile distilled water at a concentration of 10^7 CEU/ml with each of the salts listed in Table VIII at a concentration of 2 grams/100 ml (with the exception of FeSO4 which was utilized at a 5 millimolar concentration). A second portion of the apples was treated with a 50 microliter aqueous solution of the salts listed in Table VIII at a concentration of 2 grams/100 ml (with the exception of FeSO4 which was utilized in a concentration of 5 millimolar). Also a control was run using only sterile distilled water. Two hours after application of the above solutions, each of the apples was challenged with 20 microliters of a 10^5 spore/ml suspension of Botrytis cinerea. The average percent fruit infection of four trials (8 to 10 replicates per trial) was measured 10 days after inoculation with the Botrytis cinerea.
Values in parentheses are standard errors of the mean.

[2] = tested on: Penicillium digitatum; assay: Penicillium digitatum fruit rot of wounded grapefruit, CaCl2 and yeast concentrations (Example XIV)
Method: Grapefruit was wounded as in Example I. The wounded grapefruit were then treated with 50 microliter aliquots of the constituents identified in Tables XI and XII in sterile distilled water. Two hours later the […] were challenged with 20 microliters of a 10^4 spore/milliliter suspension of Penicillium digitatum. The grapefruit were incubated for 5 days at 24° C. before observations were taken.

[3] = tested on: Botrytis cinerea; assay: Botrytis cinerea infection of wounded apples, yeasts with or without CaCl2 (Example XII); details: CaCl2 2 grams/100 ml, no yeast, seven days, mean (standard error)
Text: Golden Delicious apples were wounded in accordance with the previous example. […] Two hours later the apples were challenged with 20 microliters of a suspension of 10^4 spores/milliliters of Botrytis cinerea. Seven days after inoculation percent infection was observed. […] Values in parentheses are standard errors of the mean.

[4] = tested on: Penicillium expansum; assay: Penicillium expansum lesion diameter on wounded apples (Example XIII); details: CaCl2 2 gram/100 ml alone (yeast 0), seven days
Text: Golden delicious apples were artificially wounded in accordance with Example XI.
The entries of Table X are the average of 5 replicates per treatment.

[Cl-].[Na+] [NaCl]
Percent Infection, Salt Alone (No NRRL Y-18314) [1]: 100.0 (±0.0) %

[Ca+2].[Cl-].[Cl-] [CaCl2, calcium chloride]
Average Percent Fruit Rot ([2]; CaCl2 1% alone (yeast 0), series of Table XI): 39.0%
Average Percent Fruit Rot ([2]; CaCl2 1% alone (yeast 0), series of Table XII): 63.0%
Average Percent Fruit Rot ([2]; CaCl2 2% alone (yeast 0), series of Table XI): 22.8%
Average Percent Fruit Rot ([2]; CaCl2 2% alone (yeast 0), series of Table XII): 33.0%
Average Percent Infection [3]: 100.0 (±0.0) %
Percent Infection, Salt Alone (No NRRL Y-18314) [1]: 95.0 (±5.0) %
infection reduction when used alone ([1]; used alone, 10 days): approximately 5%
Average Lesion Diameter ([4]; 10^3 spores/ml): 40.4 mm
Average Lesion Diameter ([4]; 10^4 spores/ml): 45.2 mm
Average Lesion Diameter ([4]; 10^5 spores/ml): 47.0 mm

[Cl][Mn][Cl] [MnCl2]
Percent Infection, Salt Alone (No NRRL Y-18314) [1]: 100.0 (±0.0) %

[Cl-].[Cl-].[Mg+2] [MgCl2]
Percent Infection, Salt Alone (No NRRL Y-18314) [1]: 100.0 (±0.0) %

[Cl-].[K+] [KCl]
Percent Infection, Salt Alone (No NRRL Y-18314) [1]: 100.0 (±0.0) %

O=S(=O)([O-])[O-].[Fe+2] [FeSO4]
Percent Infection, Salt Alone (No NRRL Y-18314) [1]: 87.5 (±12.5) %
